# Test results taken from patent US8337916B2, “Use of Aphanamixis polystacha extracts or fractions against 5-lipoxygenase mediated diseases” (Laila Nutraceuticals, priority 2007, dated 2012).
# How the values were obtained:
# [1] = Superoxide radical scavenging activity (NBT method, McCord and Fridovich); format: biochemical; settings: riboflavin/NBT, phosphate buffer pH 7.8, 560 nm
# Method: Superoxide radical scavenging activity of test substances was determined by the method of McCord and Fridovich. […] The tubes were mixed well and optical densities were measured at 560 nm. The tubes were uniformly illuminated with an incandescent lamp for 15 min. and the optical densities were measured again at 560 nm. The percentage inhibition of superoxide radical generation was measured by comparing the absorbance values of control and those of the test substances. The IC50 values were obtained from the plot drawn of the concentration (μg) verses percentage inhibition.
# [2] = DPPH free radical scavenging activity (method of Lamaison et al.); format: physicochemical; settings: methanolic DPPH, 517 nm
# [3] = test system: paw edema; experiment: Freund complete adjuvant induced arthritis model, paw edema; format: in vivo, Sprague Dawley rats; settings: prednisolone 10 mg/kg body weight for 14 days; paw volume 13 days after FCA; vs CMC control
# Method: The anti-oxidant and anti-inflammatory efficacies of Aphanamixis polystachya extract or fractions were evaluated by an in vivo study in Freund complete adjuvant induced arthritis model of Sprague Dawley rats. The rats of either sex were randomly selected and divided into three groups containing four animals in each group. Rats were supplemented with 50 mg/kg body weight of A. polystachya extract, or prednisolone (10 mg/kg body weight) for 14 days. The animals of control group received only the same volume of 1% Na CMC. At the 14 th day, Freund complete adjuvant (FCA) was injected subcutaneously in the sub-plantar region of the left hind paw of each animal. At the end of experiment, the animals were sacrificed and liver tissue samples were excised and stored in aliquot at −80° C. Blood samples were collected from each animal at a regular interval and paw volumes were measured by Plethysmography equipment after 13 days of FCA inoculation. The difference in volume of edema at the day of FCA injection and at 13th day after induction is considered as the inflammatory response. The in vivo anti-inflammatory response of A. polystachya was estimated by calculating, the percentage of inhibition of paw edema when compared with the CMC supplemented control rats and was compared with that of the positive control group supplemented with prednisolone as shown in FIG. 1.
Structure (SMILES),NBT method IC50 (superoxide radical scavenging) [1],DPPH method IC50 [2],inhibition in paw edema [3]
O=C1O[C@H]([C@@H](O)CO)C(O)=C1O [Vitamin C],150 µg/mL,4.1 µg/mL,
C[C@]12C=CC(=O)C=C1CC[C@@H]1[C@@H]2[C@@H](O)C[C@@]2(C)[C@H]1CC[C@]2(O)C(=O)CO [prednisolone],,,47.4%
